From US12522576B2, “Polymorphs of D9-THC naphthoylester” (priority 2019, dated 2026)
Converted amounts (≈) assume the structure as drawn.

Experiment: D9 solubility in the liquors at isolation temperature
Type: physicochemical
Conditions: organic solvent or mixture, thermodynamic from solid
Procedure: At the end of each experiment, suspensions were equilibrated at the isolation temperature (25 or 5° C.) for at least 18 hours and the solids and liquors separated by centrifugation at the isolation temperature. The Exo/D9/D8 ratio (Exo-D9-THC-naphthoylester impurity/D9-THC-naphthoylester/D8-THC-naphthoylester) was determined in both the isolated solids and the liquors, from which the % Exo-depletion in the isolated solids was calculated. Several solids were also isolated at elevated temperatures to assess the impact of the isolation temperature on Exo-impurity depletion.
In addition, the solubility of D9 in the liquors was determined in most of the explored solvents and used to estimate the yield.

Compound `CCCCCc1cc(OC(=O)c2ccc3ccccc3c2)c2c(c1)OC(C)(C)[C@@H]1CCC(C)=C[C@@H]21` [Form B, (6aR,10aR)-6a,7,8,10a-tetrahydro-6,6,9-trimethyl-3-pentyl-6H-dibenzo[b,d]pyran-1-yl ester] has a solubility (1,4-Dioxane/MeOH (1:9), 25 °C, batch 5, 1,4-Dioxane/MeOH (1:9), seed E/G, heat T 50, isolation T 25, SP 3, 4.8 mL/g) of 6000 µg/mL (≈ 12.8 mM), a solubility (Anisole/MeOH (1:9), 5 °C, batch 5, Anisole/MeOH (1:9), seed G, heat T 40, isolation T 5, SP 10, 30.0 mL/g) of 9800 µg/mL (≈ 20.9 mM) and a solubility (Cyclohexanone/EtOH (1:9), 25 °C, batch 5, Cyclohexanone/EtOH (1:9), seed G/H, heat T 55, isolation T 25, SP 16, 5.0 mL/g) of 21100 µg/mL (≈ 45 mM). For the same compound, the solubility (Cyclohexanone/MeOH (1:9), 25 °C, batch 5, Cyclohexanone/MeOH (1:9), seed G/H, heat T 60, isolation T 25, SP 12, 10.0 mL/g) was 7600 µg/mL (≈ 16.2 mM), the solubility (DMF/MeOH (1:9), 25 °C, batch 5, DMF/MeOH (1:9), seed D, heat T 50, isolation T 25, SP 2, 8.9 mL/g) was 5200 µg/mL (≈ 11.1 mM) and the solubility (DMF/MeOH (1:9), 25 °C, batch 5, DMF/MeOH (1:9), seed G, heat T 50, isolation T 25, SP 3, 9.4 mL/g) was 4700 µg/mL (≈ 10 mM). It also gave a solubility (DMF/MeOH (1:9), 25 °C, batch 5, DMF/MeOH (1:9), seed G, heat T 60, isolation T 25, SP 9, 10.0 mL/g) of 5100 µg/mL (≈ 10.9 mM), a solubility (DMSO/MeOH (1:9), 25 °C, batch 5, DMSO/MeOH (1:9), seed D, heat T 50, isolation T 25, SP 2, 8.2 mL/g) of 4100 µg/mL (≈ 8.75 mM) and a solubility (DMSO/MeOH (1:9), 25 °C, batch 5, DMSO/MeOH (1:9), seed D/G, heat T 60, isolation T 25, SP 9, 10.0 mL/g) of 4200 µg/mL (≈ 8.96 mM). The solubility (DMSO/MeOH (1:9), 25 °C, batch 5, DMSO/MeOH (1:9), seed G, heat T 50, isolation T 25, SP 4, 9.4 mL/g) was 3700 µg/mL (≈ 7.9 mM), the solubility (DMSO/MeOH (3:7), 25 °C, batch 5, DMSO/MeOH (3:7), seed D, heat T 50, isolation T 25, SP 2, 7.1 mL/g) was 7500 µg/mL (≈ 16 mM) and the solubility (DMSO/MeOH (3:7), 25 °C, batch 5, DMSO/MeOH (3:7), seed G, heat T 50, isolation T 25, SP 4, 5.2 mL/g) was 7000 µg/mL (≈ 14.9 mM). For the same compound, the solubility (DMSO/acetone/MeOH (1.5:1.5:7), 25 °C, batch 5, DMSO/acetone/MeOH (1.5:1.5:7), seed D, heat T 50, isolation T 25, SP 2, 5.0 mL/g) was 9100 µg/mL (≈ 19.4 mM), the solubility (DMSO/acetone/MeOH (1.5:1.5:7), 25 °C, batch 5, DMSO/acetone/MeOH (1.5:1.5:7), seed G, heat T 50, isolation T 25, SP 4, 5.1 mL/g) was 7200 µg/mL (≈ 15.4 mM) and the solubility (EtOAc/EtOH (1:9), 25 °C, batch 5, EtOAc/EtOH (1:9), seed H, heat T 55, isolation T 25, SP 21, 10.0 mL/g) was 12000 µg/mL (≈ 25.6 mM). It also gave a solubility (EtOAc/MeOH (1:3), 5 °C, batch 5, EtOAc/MeOH (1:3), seed G, heat T 25, isolation T 5, SP 11, 30.0 mL/g) of 11200 µg/mL (≈ 23.9 mM), a solubility (IPA, 25 °C, batch 5, IPA, seed G/H, heat T 50, isolation T 25, SP 14, 10.0 mL/g) of 7300 µg/mL (≈ 15.6 mM) and a solubility (IPA/water (95:5), 25 °C, batch 5, IPA/water (95:5), seed G/H, heat T 60, isolation T 25, SP 12, 10.0 mL/g) of 4500 µg/mL (≈ 9.6 mM). The solubility (MEK/IPA (1:9), 25 °C, batch 5, MEK/IPA (1:9), seed G/H, heat T 55, isolation T 25, SP 15, 5.0 mL/g) was 17200 µg/mL (≈ 36.7 mM), the solubility (MEK/MeOH (1:9), 25 °C, batch 5, MEK/MeOH (1:9), seed G/H, heat T 60, isolation T 25, SP 12, 10.0 mL/g) was 4500 µg/mL (≈ 9.6 mM) and the solubility (MEK/MeOH (3:7), 5 °C, batch 5, MEK/MeOH (3:7), seed G, heat T 25, isolation T 5, SP 11, 30.0 mL/g) was 15800 µg/mL (≈ 33.7 mM). For the same compound, the solubility (MEK/MeOH (3:7), 25 °C, batch 5, MEK/MeOH (3:7), seed G, heat T 25, isolation T 25, SP 7, 30.0 mL/g) was 16800 µg/mL (≈ 35.8 mM), the solubility (MeOH, 25 °C, batch 5, MeOH, seed E/G, heat T 50, isolation T 25, SP 3, 9.8 mL/g) was 5000 µg/mL (≈ 10.7 mM) and the solubility (Toluene/EtOH (5:95), 25 °C, batch 5, Toluene/EtOH (5:95), seed H, heat T 55, isolation T 25, SP 21, 12.0 mL/g) was 10300 µg/mL (≈ 22 mM). It also gave a solubility (Toluene/MeOH (1:9), 5 °C, batch 5, Toluene/MeOH (1:9), seed G, heat T 40, isolation T 5, SP 10, 30.0 mL/g) of 8700 µg/mL (≈ 18.6 mM), a solubility (crystallisation liquors over suspended solid, 5 °C, batch 5, p-Xylene/MeOH (1:9), seed G, heat T 25, isolation T 5, SP 11, 40.0 mL/g) of 9200 µg/mL (≈ 19.6 mM) and a solubility (crystallisation liquors over suspended solid, 25 °C, batch 2, IPA/water (95:5), seed G/H, heat T 55, isolation T 25, SP 13, 10.0 mL/g) of 5600 µg/mL (≈ 11.9 mM). The solubility (crystallisation liquors over suspended solid, 25 °C, batch 2, IPA/water (99:1), seed G/H, heat T 55, isolation T 25, SP 13, 10.0 mL/g) was 7300 µg/mL (≈ 15.6 mM), the solubility (crystallisation liquors over suspended solid, 25 °C, batch 5, Anisole/MeOH (1:9), seed G, heat T 40, isolation T 25, SP 8, 30.0 mL/g) was 9600 µg/mL (≈ 20.5 mM) and the solubility (crystallisation liquors over suspended solid, 25 °C, batch 5, Cyclohexanone/IPA (1:9), seed G/H, heat T 45, isolation T 25, SP 15, 2.5 mL/g) was 59200 µg/mL (≈ 126 mM). It also gave a solubility (crystallisation liquors over suspended solid, 25 °C, batch 5, EtOAc/IPA (1:9), seed G/H, heat T 55, isolation T 25, SP 15, 7.4 mL/g) of 15100 µg/mL (≈ 32.2 mM), a solubility (crystallisation liquors over suspended solid, 25 °C, batch 5, EtOAc/MeOH (1:3), seed G, heat T 40, isolation T 25, SP 8, 30.0 mL/g) of 11300 µg/mL (≈ 24.1 mM) and a solubility (crystallisation liquors over suspended solid, 25 °C, batch 5, EtOH, seed E/G, heat T 50, isolation T 25, SP 3, 9.6 mL/g) of 6900 µg/mL (≈ 14.7 mM). For the same compound, the solubility (crystallisation liquors over suspended solid, 25 °C, batch 5, MEK/EtOH (1:9), seed G/H, heat T 55, isolation T 25, SP 15, 10.0 mL/g) was 11200 µg/mL (≈ 23.9 mM), the solubility (crystallisation liquors over suspended solid, 25 °C, batch 5, Toluene/MeOH (1:9), seed G, heat T 40, isolation T 25, SP 8, 30.0 mL/g) was 8400 µg/mL (≈ 17.9 mM) and the solubility (crystallisation liquors over suspended solid, 25 °C, batch 5, Toluene/MeOH (3:7), seed G, heat T 40, isolation T 25, SP 3, 5.5 mL/g) was 53500 µg/mL (≈ 114 mM). It also gave a solubility (crystallisation liquors over suspended solid, 25 °C, batch 5, n-BuOH, seed E/G, heat T 50, isolation T 25, SP 3, 9.8 mL/g) of 14800 µg/mL (≈ 31.6 mM), a solubility (crystallisation liquors over suspended solid, 25 °C, batch 5, n-BuOH, seed G, heat T 40, isolation T 25, SP 8, 10.0 mL/g) of 16700 µg/mL (≈ 35.6 mM) and a solubility (liquors of the equilibrated crystallisation suspension, 25 °C, batch 2, IPA/water (95:5), seed G/H, heat T 55, isolation T 25, 10.0 mL/g, SP 13, Exp 43) of 5600 µg/mL (≈ 11.9 mM). It also gave a solubility (liquors of the equilibrated crystallisation suspension, 25 °C, batch 2, IPA/water (99:1), seed G/H, heat T 55, isolation T 25, 10.0 mL/g, SP 13, Exp 45) of 7300 µg/mL (≈ 15.6 mM), a solubility (liquors of the equilibrated crystallisation suspension, 25 °C, batch 5, Cyclohexanone/EtOH (1:9), seed G/H, heat T 55, isolation T 25, 5.0 mL/g, SP 16, Exp 32) of 21100 µg/mL (≈ 45 mM) and a solubility (liquors of the equilibrated crystallisation suspension, 25 °C, batch 5, Cyclohexanone/IPA (1:9), seed G/H, heat T 45, isolation T 25, 2.5 mL/g, SP 15, Exp 39) of 59200 µg/mL (≈ 126 mM). It also gave a solubility (liquors of the equilibrated crystallisation suspension, 25 °C, batch 5, Cyclohexanone/MeOH (1:9), seed G/H, heat T 60, isolation T 25, 10.0 mL/g, SP 12, Exp 30) of 7600 µg/mL (≈ 16.2 mM), a solubility (liquors of the equilibrated crystallisation suspension, 25 °C, batch 5, EtOAc/EtOH (1:9), seed H, heat T 55, isolation T 25, 10.0 mL/g, SP 21, Exp 28) of 12000 µg/mL (≈ 25.6 mM) and a solubility (liquors of the equilibrated crystallisation suspension, 25 °C, batch 5, EtOAc/IPA (1:9), seed G/H, heat T 55, isolation T 25, 7.4 mL/g, SP 15, Exp 35) of 15100 µg/mL (≈ 32.2 mM). For the same compound, the solubility (liquors of the equilibrated crystallisation suspension, 25 °C, batch 5, IPA/water (95:5), seed G/H, heat T 60, isolation T 25, 10.0 mL/g, SP 12, Exp 29) was 4500 µg/mL (≈ 9.6 mM), the solubility (liquors of the equilibrated crystallisation suspension, 25 °C, batch 5, IPA, seed G/H, heat T 50, isolation T 25, 10.0 mL/g, SP 14, Exp 31) was 7300 µg/mL (≈ 15.6 mM) and the solubility (liquors of the equilibrated crystallisation suspension, 25 °C, batch 5, MEK/EtOH (1:9), seed G/H, heat T 55, isolation T 25, 10.0 mL/g, SP 15, Exp 40) was 11200 µg/mL (≈ 23.9 mM). It also gave a solubility (liquors of the equilibrated crystallisation suspension, 25 °C, batch 5, MEK/IPA (1:9), seed G/H, heat T 55, isolation T 25, 5.0 mL/g, SP 15, Exp 25) of 17200 µg/mL (≈ 36.7 mM), a solubility (liquors of the equilibrated crystallisation suspension, 25 °C, batch 5, MEK/MeOH (1:9), seed G/H, heat T 60, isolation T 25, 10.0 mL/g, SP 12, Exp 27) of 4500 µg/mL (≈ 9.6 mM) and a solubility (liquors of the equilibrated crystallisation suspension, 25 °C, batch 5, Toluene/EtOH (5:95), seed H, heat T 55, isolation T 25, 12.0 mL/g, SP 21, Exp 33) of 10300 µg/mL (≈ 22 mM). The solubility (n-BuOH/MeOH (1:3), 25 °C, batch 5, n-BuOH/MeOH (1:3), seed E/G, heat T 50, isolation T 25, SP 3, 9.4 mL/g) was 5600 µg/mL (≈ 11.9 mM) and the solubility (n-BuOH/MeOH (1:3), 25 °C, batch 5, n-BuOH/MeOH (1:3), seed G, heat T 60, isolation T 25, SP 9, 10.0 mL/g) was 6000 µg/mL (≈ 12.8 mM).
